Read-outs that look alike come from different tables or passages of the source.

Assay [1] addresses T1, SARS-CoV-2 nsp3-mac1 (Severe acute respiratory syndrome coronavirus 2, UniProt P0DTD1). The assay is described as follows: biochemical. It counts as biochemical. Conditions: SARS-CoV-2 nsp3 macrodomain TR-FRET single point, n=2. A general note: Time-resolved FRET reads energy transfer from a long-lived donor to a nearby acceptor.
The target of assay [2] is T1, SARS-CoV-2 nsp3-mac1. Nature of the assay: biochemical. On the set-up: SARS-CoV-2 nsp3 macrodomain TR-FRET single point, per cent inhibition, n=2.
Setting [3] is: read-out: perc_inhibition_mean, batch_name=ASAP-0000257-001.
Setting [4] is: read-out: perc_inhibition_mean, batch_name=ASAP-0000258-001.
Setting [5] is: read-out: perc_inhibition_mean, batch_name=ASAP-0000260-001.
Where [6] appears, read: read-out: perc_inhibition_mean, batch_name=ASAP-0000261-001.
Setting [7] is: read-out: perc_inhibition_mean, batch_name=ASAP-0000262-001.
The mark [8] stands for this setting: read-out: perc_inhibition_mean, batch_name=ASAP-0000263-001.
Where [9] appears, read: read-out: perc_inhibition_mean, batch_name=ASAP-0000264-001.
The mark [10] stands for this setting: read-out: perc_inhibition_mean, batch_name=ASAP-0000265-001.
[11] abbreviates: read-out: perc_inhibition_mean, batch_name=ASAP-0000267-001.
[12] abbreviates: read-out: perc_inhibition_mean, batch_name=ASAP-0000268-001.
Where [13] appears, read: read-out: perc_inhibition_mean, batch_name=ASAP-0000276-001.
The mark [14] stands for this setting: read-out: perc_inhibition_mean, batch_name=ASAP-0000277-001.
Setting [15] is: read-out: perc_inhibition_mean, batch_name=ASAP-0000278-001.
The mark [16] stands for this setting: read-out: perc_inhibition_mean, batch_name=ASAP-0000279-001.
The mark [17] stands for this setting: read-out: perc_inhibition_mean, batch_name=ASAP-0000280-001.

Regarding `C(=C1CCCCC1)c1ncnc2[nH]ccc12` [ASAP-0000257], the perc_inhibition_mean at SARS-CoV-2 nsp3-mac1 [1] (concentration 50.0 uM) is recorded as -5.46%. The perc_inhibition_mean at SARS-CoV-2 nsp3-mac1 [1] (concentration 100.0 uM) amounted to 3.464%. For the same compound, on SARS-CoV-2 nsp3-mac1 [2] (setting [3]), the inhibition at 50 µM is -5.46% and the inhibition at 100 µM stood at 3.46%.

On to `O=c1[nH]cnc2[nH]cc(-c3ccoc3)c12` [ASAP-0000258], for which the perc_inhibition_mean at SARS-CoV-2 nsp3-mac1 [1] (concentration 50.0 uM) is on record as -14.47%. Moreover, at SARS-CoV-2 nsp3-mac1 [1] (concentration 100.0 uM), the perc_inhibition_mean was -13.824%. At SARS-CoV-2 nsp3-mac1 [2] (setting [4]), the inhibition at 50 µM is -14.5% and the inhibition at 100 µM is -13.8%.

In the case of `Oc1cc(CNc2ncnc3[nH]cnc23)ccn1` [ASAP-0000260], the perc_inhibition_mean at SARS-CoV-2 nsp3-mac1 [1] (concentration 50.0 uM) is on record as -0.821%. Further, the perc_inhibition_mean at SARS-CoV-2 nsp3-mac1 [1] (concentration 100.0 uM) was -3.73%. Also, on SARS-CoV-2 nsp3-mac1 [2] (setting [5]), the inhibition at 50 µM is -0.821% and the inhibition at 100 µM is -3.73%.

Regarding `O=C(NCc1nc2cccnc2[nH]1)c1cnc2nc[nH]c(=O)c2c1` [ASAP-0000261], on SARS-CoV-2 nsp3-mac1 [1] (concentration 50.0 uM), the perc_inhibition_mean was -1.987%. Moreover, the perc_inhibition_mean at SARS-CoV-2 nsp3-mac1 [1] (concentration 100.0 uM) is given as 7.034%. Moreover, at SARS-CoV-2 nsp3-mac1 [2] (setting [6]), the inhibition at 50 µM is -1.99% and the inhibition at 100 µM was found to be 7.03%.

`c1cc(CNc2ncnc3nc[nH]c23)n2ncnc2c1` [ASAP-0000262]: at SARS-CoV-2 nsp3-mac1 [1] (concentration 50.0 uM), the perc_inhibition_mean is 1.353%. In addition, at SARS-CoV-2 nsp3-mac1 [1] (concentration 100.0 uM), the perc_inhibition_mean is listed as 10.036%. For the same compound, at SARS-CoV-2 nsp3-mac1 [2] (setting [7]), the inhibition at 50 µM amounted to 1.35% and the inhibition at 100 µM came out at 10%.

Take `Cc1[nH]c2ncnc(NCc3ccco3)c2c1C` [ASAP-0000263]: the perc_inhibition_mean on SARS-CoV-2 nsp3-mac1 [1] (concentration 50.0 uM) was 16.967%; at SARS-CoV-2 nsp3-mac1 [1] (concentration 100.0 uM) it was 37.474%. For the same compound, the inhibition at 50 µM at SARS-CoV-2 nsp3-mac1 [2] (setting [8]) is 17%. Besides, on SARS-CoV-2 nsp3-mac1 [2] (setting [8]), the inhibition at 100 µM is 37.5%.

As to `Cc1nc(NC(=O)c2nccc3ccncc23)c2cc[nH]c2n1` [ASAP-0000264], the values for the perc_inhibition_mean at SARS-CoV-2 nsp3-mac1 [1] (concentration 50.0 uM) and on SARS-CoV-2 nsp3-mac1 [1] (concentration 100.0 uM) were -5.834% and 2.611%, respectively. Besides, the inhibition at 50 µM at SARS-CoV-2 nsp3-mac1 [2] (setting [9]) was -5.83%. For the same compound, the inhibition at 100 µM at SARS-CoV-2 nsp3-mac1 [2] (setting [9]) was 2.61%.

Consider `CCC(CC)(C(=O)Nc1nc(C)nc2[nH]ccc12)C(=O)OC(C)(C)C` [ASAP-0000265], for which, on SARS-CoV-2 nsp3-mac1 [1] (concentration 50.0 uM), the perc_inhibition_mean was -9.456%. For the same compound, the perc_inhibition_mean on SARS-CoV-2 nsp3-mac1 [1] (concentration 100.0 uM) was -4.708%. Besides, on SARS-CoV-2 nsp3-mac1 [2] (setting [10]), the inhibition at 50 µM was -9.46% and the inhibition at 100 µM is -4.71%.

On to `O=C(Nc1cnc2[nH]ncc2c1)c1cccc(-c2noc(C(F)(F)F)n2)c1` [ASAP-0000267], for which the perc_inhibition_mean at SARS-CoV-2 nsp3-mac1 [1] (concentration 50.0 uM) was -0.675%. Also, at SARS-CoV-2 nsp3-mac1 [1] (concentration 100.0 uM), the perc_inhibition_mean was -1.621%. Besides, on SARS-CoV-2 nsp3-mac1 [2] (setting [11]), the inhibition at 50 µM is -0.675% and the inhibition at 100 µM is -1.62%.

As for `Cc1nc(NC(=O)c2ccnn2C(C)C)c2cc[nH]c2n1` [ASAP-0000268], the perc_inhibition_mean on SARS-CoV-2 nsp3-mac1 [1] (concentration 50.0 uM) is given as -2.642%. Further, the perc_inhibition_mean on SARS-CoV-2 nsp3-mac1 [1] (concentration 100.0 uM) is given as -4.346%. On SARS-CoV-2 nsp3-mac1 [2] (setting [12]), the inhibition at 50 µM is -2.64% and the inhibition at 100 µM was -4.35%.

On to `COC(=O)[C@]1(F)CCN(C(=O)c2ccc(NC(=O)Nc3ccccc3)cc2)C1` [ASAP-0000276], for which the perc_inhibition_mean at SARS-CoV-2 nsp3-mac1 [1] (concentration 49.75 uM) is on record as -0.893%. For the same compound, the perc_inhibition_mean on SARS-CoV-2 nsp3-mac1 [1] (concentration 99.5 uM) came to 0.834%. On SARS-CoV-2 nsp3-mac1 [2] (setting [13]), the inhibition at 49.75 µM was -0.893% and the inhibition at 99.5 µM came to 0.834%.

For the compound `CN(Cc1cn(C)nn1)C(=O)c1cnn2ccc(C3CCN(C(=O)c4ccccc4)CC3)cc12` [ASAP-0000277], the values for the perc_inhibition_mean at SARS-CoV-2 nsp3-mac1 [1] (concentration 49.75 uM) and on SARS-CoV-2 nsp3-mac1 [1] (concentration 99.5 uM) were 2.174% and 1.337%, respectively. On SARS-CoV-2 nsp3-mac1 [2] (setting [14]), the inhibition at 49.75 µM is 2.17%. The inhibition at 99.5 µM at SARS-CoV-2 nsp3-mac1 [2] (setting [14]) amounted to 1.34%.

Take `Cc1ncc(NCc2csc(-c3ccccn3)n2)cn1` [ASAP-0000278]: the perc_inhibition_mean on SARS-CoV-2 nsp3-mac1 [1] (concentration 49.75 uM) is recorded as -5.23%. Further, the perc_inhibition_mean at SARS-CoV-2 nsp3-mac1 [1] (concentration 99.5 uM) was -4.487%. Besides, at SARS-CoV-2 nsp3-mac1 [2] (setting [15]), the inhibition at 49.75 µM was -5.23% and the inhibition at 99.5 µM is -4.49%.

For the compound `FC(F)(F)c1nnc2n1CCN(c1ncnc3[nH]ccc13)C2` [ASAP-0000279], the perc_inhibition_mean at SARS-CoV-2 nsp3-mac1 [1] (concentration 49.75 uM) is -1.969%. For the same compound, the perc_inhibition_mean on SARS-CoV-2 nsp3-mac1 [1] (concentration 99.5 uM) is reported as -1.005%. In addition, at SARS-CoV-2 nsp3-mac1 [2] (setting [16]), the inhibition at 49.75 µM is -1.97% and the inhibition at 99.5 µM was -1%.

Take `O=C(c1ccccc1)N1CCC(c2ccn3ncc(C(=O)N4CCc5nc[nH]c5C4)c3c2)CC1` [ASAP-0000280]: on SARS-CoV-2 nsp3-mac1 [1] (concentration 49.75 uM), the perc_inhibition_mean turned out to be 11.216%. Further, the perc_inhibition_mean on SARS-CoV-2 nsp3-mac1 [1] (concentration 99.5 uM) is on record as 20.268%. Further, at SARS-CoV-2 nsp3-mac1 [2] (setting [17]), the inhibition at 49.75 µM is 11.2% and the inhibition at 99.5 µM was 20.3%.

For the origin of these results see article doi:10.1101/2024.08.19.608619, “Discovery of potent SARS-CoV-2 nsp3 macrodomain inhibitors uncovers lack of translation to cellular antiviral response” (bioRxiv, 2024).
